pIC50: −log10 of the molar value.
target: T1, Zcchc11 enzyme (Homo sapiens, UniProt Q5TAX3); assay: TUTase assay (Zcchc11 assay, Lin28a-dependent polyuridylation of pre-let-7); format: biochemical; conditions: Lin28a-dependent Zcchc11 (Z11) TUTase activity; read-out: Potency Lin28a-dep Z11 IC50
T1 construct: made in house; host or cells: HEK293 cells (Zcchc11); E. coli Rosetta II (LIN28A)
T1 sequence (Q5TAX3 212-1420): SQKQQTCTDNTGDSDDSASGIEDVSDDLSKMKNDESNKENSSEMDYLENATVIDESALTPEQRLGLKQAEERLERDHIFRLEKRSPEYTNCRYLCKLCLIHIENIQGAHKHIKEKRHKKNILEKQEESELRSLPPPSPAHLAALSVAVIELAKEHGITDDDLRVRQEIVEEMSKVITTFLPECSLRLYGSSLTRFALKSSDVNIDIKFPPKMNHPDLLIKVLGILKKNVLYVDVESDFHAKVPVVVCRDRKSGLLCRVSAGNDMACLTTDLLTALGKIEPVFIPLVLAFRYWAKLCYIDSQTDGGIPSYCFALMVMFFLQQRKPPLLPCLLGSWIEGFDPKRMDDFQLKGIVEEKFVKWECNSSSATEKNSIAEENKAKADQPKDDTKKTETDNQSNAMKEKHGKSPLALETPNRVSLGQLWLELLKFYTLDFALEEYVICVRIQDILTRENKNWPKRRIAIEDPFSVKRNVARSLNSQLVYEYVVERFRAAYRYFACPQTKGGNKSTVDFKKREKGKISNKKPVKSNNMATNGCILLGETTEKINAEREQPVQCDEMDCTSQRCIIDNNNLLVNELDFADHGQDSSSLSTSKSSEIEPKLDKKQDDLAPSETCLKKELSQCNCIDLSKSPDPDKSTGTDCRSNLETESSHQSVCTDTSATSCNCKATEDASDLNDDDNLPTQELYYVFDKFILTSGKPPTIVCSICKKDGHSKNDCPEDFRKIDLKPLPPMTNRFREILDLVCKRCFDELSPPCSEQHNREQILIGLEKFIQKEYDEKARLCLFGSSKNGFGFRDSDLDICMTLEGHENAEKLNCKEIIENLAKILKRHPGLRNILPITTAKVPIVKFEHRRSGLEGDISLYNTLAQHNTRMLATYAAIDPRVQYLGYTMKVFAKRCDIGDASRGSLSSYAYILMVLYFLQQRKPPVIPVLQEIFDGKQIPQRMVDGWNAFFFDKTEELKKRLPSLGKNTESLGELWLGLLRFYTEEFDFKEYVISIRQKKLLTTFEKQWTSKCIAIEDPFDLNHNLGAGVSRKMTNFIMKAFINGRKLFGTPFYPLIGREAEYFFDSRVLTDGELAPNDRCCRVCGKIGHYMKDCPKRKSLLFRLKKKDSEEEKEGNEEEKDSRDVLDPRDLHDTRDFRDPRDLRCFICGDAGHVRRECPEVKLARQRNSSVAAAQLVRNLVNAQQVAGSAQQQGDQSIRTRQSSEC
Outline: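 Readout: time-dependent quench of 5′-fluorescein pre-let-7 (2 nM) as 3′-rhodamine A20 probe anneals to poly(U) tails. Enzyme 0.2 nM Zcchc11 (res. 212-1420), LIN28A 10 nM, UTP 5 uM; pH 7.3 HEPES, 150 mM KCl, 5 mM MgCl2, RT. 4-parameter IC50; 100% = DMSO, 0% = no UTP.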

| Compound | pIC50 |
| --- | --- |
| O=C(O)c1cn(-c2ccc(O)cc2)c2c(F)c(N3CCC[C@@H]3COc3ccccn3)c(F)cc2c1=O [Compound 134, (R)-6,8-difluoro-1-(4-hydroxy-phenyl)-4-oxo-7-(2-((pyridin-2-yloxy)methyl)pyrrolidin-1-yl)-1,4-dihydro-quinoline-3-carboxylic acid] | ≥ 6.00 |
| O=C(O)c1cn(-c2ccc(O)cc2F)c2cc(N3CCC[C@@H]3COc3cccnn3)c(F)cc2c1=O [Compound 135, (R)-6-fluoro-1-(2-fluoro-4-hydroxy-phenyl)-4-oxo-7-(2-((pyridazin-3-yloxy)methyl)pyrrolidin-1-yl)-1,4-dihydro-quinoline-3-carboxylic acid] | ≥ 6.00 |
| O=C(O)c1cn(-c2ccc(O)cc2F)c2cc(N3CCC[C@@H]3COc3ccncn3)c(F)cc2c1=O [Compound 136, (R)-6-fluoro-1-(2-fluoro-4-hydroxy-phenyl)-4-oxo-7-(2-((pyrimidin-4-yloxy)methyl)pyrrolidin-1-yl)-1,4-dihydro-quinoline-3-carboxylic acid] | 5.00 to 6.00 |
| COc1ccc(COc2ccc(-n3cc(C(=O)O)c(=O)c4cc(F)c(N5CCC[C@@H]5COc5ncccn5)cc43)c(F)c2)cc1 [Compound 137, (R)-6-fluoro-1-(2-fluoro-4-((4-methoxy-benzyl)oxy)phenyl)-4-oxo-7-(2-((pyrimidin-2-yloxy)methyl)pyrrolidin-1-yl)-1,4-dihydro-quinoline-3-carboxylic acid] | ≥ 6.00 |
| COc1ccc(COc2ccc(-n3cc(C(=O)O)c(=O)c4cc(F)c(N5CCC[C@@H]5COc5cccnn5)cc43)c(F)c2)cc1 [Compound 138, (R)-6-fluoro-1-(2-fluoro-4-((4-methoxy-benzyl)oxy)phenyl)-4-oxo-7-(2-((pyridazin-3-yloxy)methyl)pyrrolidin-1-yl)-1,4-dihydro-quinoline-3-carboxylic acid] | ≥ 6.00 |
| COc1ccc(COc2ccc(-n3cc(C(=O)O)c(=O)c4cc(F)c(N5CCC[C@@H]5COc5ccncn5)cc43)c(F)c2)cc1 [Compound 139, (R)-6-fluoro-1-(2-fluoro-4-((4-methoxy-benzyl)oxy)phenyl)-4-oxo-7-(2-((pyrimidin-4-yloxy)methyl)pyrrolidin-1-yl)-1,4-dihydro-quinoline-3-carboxylic acid] | ≥ 6.00 |
| CC(C)[C@H]1COC(=O)N1C[C@H]1CCCN1c1cc2c(cc1Cl)c(=O)c(C(=O)O)cn2C1(C)CC1 [Compound 140, 6-chloro-7-((R)-2-(((S)-4-isopropyl-2-oxooxazolidin-3-yl)methyl)pyrrolidin-1-yl)-1-(1-methylcyclo-propyl)-4-oxo-1,4-dihydro-quinoline-3-carboxylic acid] | < 4.30 |
| CC(C)[C@@H]1COC(=O)N1C[C@H]1CCCN1c1cc2c(cc1Cl)c(=O)c(C(=O)O)cn2C1(C)CC1 [Compound 141, 6-chloro-7-((R)-2-(((R)-4-isopropyl-2-oxooxazolidin-3-yl)methyl)pyrrolidin-1-yl)-1-(1-methylcyclo-propyl)-4-oxo-1,4-dihydro-quinoline-3-carboxylic acid] | < 4.30 |
| O=C(O)c1cn(-c2cccc(F)c2F)c2cc(N3CCC[C@@H]3COc3ccccn3)c(F)cc2c1=O [Compound 142, (R)-1-(2,3-difluorophenyl)-6-fluoro-4-oxo-7-(2-((pyridin-2-yloxy)methyl)pyrrolidin-1-yl)-1,4-dihydro-quinoline-3-carboxylic acid] | 5.00 to 6.00 |

Now from value to compound:

| pIC50 | Compound |
| --- | --- |
| ≥ 6.00 | Cc1cccnc1OC[C@H]1CCCN1c1cc2c(cc1F)c(=O)c(C(=O)O)cn2-c1ccc(O)c(Cl)c1 [Compound 122, (R)-1-(3-chloro-4-hydroxy-phenyl)-6-fluoro-7-(2-(((3-methylpyridin-2-yl)oxy)methyl)pyrrolidin-1-yl)-4-oxo-1,4-dihydro-quinoline-3-carboxylic acid] |
| ≥ 6.00 | Cc1cccnc1OC[C@H]1CCCN1c1cc2c(cc1F)c(=O)c(C(=O)O)cn2-c1ccc(CO)cc1F [Compound 123, (R)-6-fluoro-1-(2-fluoro-4-(hydroxy-methyl)phenyl)-7-(2-(((3-methylpyridin-2-yl)oxy)methyl)pyrrolidin-1-yl)-4-oxo-1,4-dihydro-quinoline-3-carboxylic acid] |
| ≥ 6.00 | COCCOc1ccc(-n2cc(C(=O)O)c(=O)c3cc(F)c(N4CCC[C@@H]4COc4ncccc4C)cc32)cc1 [Compound 124, (R)-6-fluoro-1-(4-(2-methoxyethoxy)phenyl)-7-(2-(((3-methylpyridin-2-yl)oxy)methyl)pyrrolidin-1-yl)-4-oxo-1,4-dihydro-quinoline-3-carboxylic acid] |
| ≥ 6.00 | COCCOc1cnc(-n2cc(C(=O)O)c(=O)c3cc(F)c(N4CCC[C@@H]4COc4ncccc4C)cc32)cn1 [Compound 125, (R)-6-fluoro-1-(5-(2-methoxyethoxy)pyrazin-2-yl)-7-(2-(((3-methylpyridin-2-yl)oxy)methyl)pyrrolidin-1-yl)-4-oxo-1,4-dihydro-quinoline-3-carboxylic acid] |
| ≥ 6.00 | O=C(O)c1cn(-c2ccc(Cl)c(O)c2)c2cc(N3CCC[C@@H]3COc3ncccc3Cl)c(Cl)cc2c1=O [Compound 126, (R)-6-chloro-1-(4-chloro-3-hydroxy-phenyl)-7-(2-(((3-chloropyridin-2-yl)oxy)methyl)pyrrolidin-1-yl)-4-oxo-1,4-dihydro-quinoline-3-carboxylic acid] |
| ≥ 6.00 | O=C(O)c1cn(-c2ccc(O)c(F)c2)c2cc(N3CCC[C@@H]3COc3ncccc3Cl)c(Cl)cc2c1=O [Compound 127, (R)-6-chloro-7-(2-(((3-chloropyridin-2-yl)oxy)methyl)pyrrolidin-1-yl)-1-(3-fluoro-4-hydroxy-phenyl)-4-oxo-1,4-dihydro-quinoline-3-carboxylic acid] |
| ≥ 6.00 | O=C(O)c1cn(-c2ccc3[nH]ncc3c2)c2cc(N3CCC[C@@H]3COc3ncccc3Cl)c(Cl)cc2c1=O [Compound 128, (R)-6-chloro-7-(2-(((3-chloropyridin-2-yl)oxy)methyl)pyrrolidin-1-yl)-1-(1H-indazol-5-yl)-4-oxo-1,4-dihydro-quinoline-3-carboxylic acid] |
| ≥ 6.00 | CC1(n2cc(C(=O)O)c(=O)c3cc(Cl)c(N4CCC[C@@H]4COc4ncccc4Cl)cc32)CC1 [Compound 129, (R)-6-chloro-7-(2-(((3-chloropyridin-2-yl)oxy)methyl)pyrrolidin-1-yl)-1-(1-methylcyclo-propyl)-4-oxo-1,4-dihydro-quinoline-3-carboxylic acid] |
| ≥ 6.00 | O=C(O)c1cn(-c2ccc(F)c(O)c2)c2cc(N3CCC[C@@H]3COc3ncccc3Cl)c(Cl)cc2c1=O [Compound 130, (R)-6-chloro-7-(2-(((3-chloropyridin-2-yl)oxy)methyl)pyrrolidin-1-yl)-1-(4-fluoro-3-hydroxy-phenyl)-4-oxo-1,4-dihydro-quinoline-3-carboxylic acid] |
| ≥ 6.00 | O=C(O)c1cn(-c2ccc(O)c(Cl)c2)c2cc(N3CCC[C@@H]3COc3ncccc3Cl)c(Cl)cc2c1=O [Compound 131, (R)-6-chloro-1-(3-chloro-4-hydroxy-phenyl)-7-(2-(((3-chloropyridin-2-yl)oxy)methyl)pyrrolidin-1-yl)-4-oxo-1,4-dihydro-quinoline-3-carboxylic acid] |
| ≥ 6.00 | Cc1cccnc1OC[C@H]1CCCN1c1c(F)cc2c(=O)c(C(=O)O)cn(-c3ccc(O)cc3)c2c1F [Compound 132, (R)-6,8-difluoro-1-(4-hydroxy-phenyl)-7-(2-(((3-methylpyridin-2-yl)oxy)methyl)pyrrolidin-1-yl)-4-oxo-1,4-dihydro-quinoline-3-carboxylic acid] |
| ≥ 6.00 | Cc1cccnc1OC[C@H]1CCCN1c1nc2c(cc1F)c(=O)c(C(=O)O)cn2-c1ccc(O)cc1 [Compound 133, (R)-6-fluoro-1-(4-hydroxy-phenyl)-7-(2-(((3-methylpyridin-2-yl)oxy)methyl)pyrrolidin-1-yl)-4-oxo-1,4-dihydro-1,8-naphthyridine-3-carboxylic acid] |
